Laboratory results taken from patent US20250297321A1, “METHOD FOR DETECTING METABOLIC REPROGRAMING OF CANCER TOWARDS FATTY ACIDS METABOLISM” (INSTITUT NATIONAL DE LA SANTE ET DE LA RECHERCHE MEDICALE, priority 2022, published 2025).

Key:
Format in all cases: cell-based, human
[1] = tested on: MD901 DLBCL cell line; experiment: Annexin V/DAPI apoptosis assay in MD901; settings: for Apoptosis by Annexin V/DAPI staining: MD901 (FIG. 8A); for Drug-induced apoptosis upon RelB-expression knockdown: RelB knocked-down MD901 vs shRNA control (FIG. 8A)
Method: MD901 and SUDHL-4 DLBCL cell lines were obtained from Jos6 Angel Martinez-Climent (Centro de Investigación Médica Aplicada, Pamplona, Spain).
(§1) DLBCL cells were harvested and washed twice with cold PBS. Cells were resuspended in 1× binding buffer containing Annexin V/APC (BD Biosciences Pharmingen) and 4′,6-diaminidino-2-phenylindole (DAPI, Molecular Probes) for 15 min at room temperature. The samples were subjected to cytometric analysis with a MACSQuant Analyzer 10 Flow Cytometer (Miltenyi Biotec) and the data were analyzed using the Flowjo v10.2 software.

[2] = tested on: MD901 DLBCL cell line; experiment: Mitochondrial transmembrane potential (TMRM) in MD901; settings: RelB knocked-down MD901, TMRM low (FIG. 8B)
Method: For determination of mitochondrial transmembrane potential (ΔΨm), cells were stained with 100 nM of Tetramethyl rhodamine methyl ester (TMRM) (Molecular Probes) in RPMI-1640 Glutamax medium for 30 min at room temperature. Cells were evaluated by cytometric analysis as above. During apoptosis, the permeabilization of the mitochondrial outer membrane leads to loss of mitochondrial transmembrane potential (ΔΨm) corresponding to TMRM low/DAPI neg cells.

[3] = tested on: Huh7 cells; experiment: Huh7 cell growth (RelB overexpressing cells); settings: 4-BCA 10 μM, 48 h, vs control cells (FIG. 4B)
Method: (§2) Huh7 HCC cell line and genetically engineered derivatives targeting RelB expression levels (knock-down of RelB expression: Huh7 shRNA human RelB & Huh7 shRNA control; RelB overexpression: Huh7 cDNA human WT Rel & Huh7 cDNA control) were grown in MEM culture medium supplemented with 10% of fetal bovine serum (FBS), 100 U/mL penicillin, and […] streptomycin, 25 mM Hepes Buffer, 1 mM of sodium pyruvate, 1% of non-essential amino-acids (NEAA), which stands for standard culture medium. Huh7 genetically engineered cell lines were only used at passage P1 to P6. Cells passaging occurred twice a week to maintain a condition of 75% confluence. To evaluate the effect of fatty acid treatment, Huh7 cells cultured in FBS-free medium for hours were treated for 16 hours in FBS-free medium supplemented with various concentration (50 to 300 μM) of either oleic or palmitic acid along with 1% of free fatty acid bovine serum albumin.
(§3) Cell viability was assessed using trypan blue dye exclusion.

[4] = tested on: Huh7 cells; experiment: Huh7 cell death, DAPI staining; settings: RelB overexpressing Huh7, palmitic acid 50 μM, 0% FBS, 48 h, in presence of 4-BCA (FIG. 4C)
Method: as §2, with “Huh7 cells cultured in FBS-free medium for hours were treated for 16 hours in FBS-free medium supplemented with various concentration (50 to 300 μM) of either oleic or palmitic acid along with 1% of free fatty” left out
Huh7 cells were stained with 4′, 6-diamidino-2-phenylindole (DAPI). Then, images were acquired for DAPI positive cells by fluorescent microscopy (magnification: 20×) on at least 6 different fields combined with one acquisition under white light to quantify the total number of cells in the same field. Quantification was carried out by image J software. Cell death is expressed in percentage (number of DAPI positive cells/total number of cells per field)*100).

[5] = tested on: MD901 cells; experiment: Induction of cell death in MD901 cells
Method: as §1, §3

[6] = tested on: OCILY19 cells; experiment: Induction of cell death in OCILY19 cells
Method: as §1, §3

[7] = tested on: SUDHL-4 cells; experiment: Induction of cell death in SUDHL-4 cells; settings: glycolytic BCR SUDHL-4 cells
Method: as §1, §3

`COc1cc(Nc2ncc(F)c(Nc3ccc4c(n3)NC(=O)C(C)(C)O4)n2)cc(OC)c1OC` [R406] was tested, and the “Sensitivity to R406-induced apoptosis” value ([1]; MD901 (FIG. 6A)) was “insensitive”.

In the case of `CN(C)C(=N)N=C(N)N` [Metformin, metformin], the “Apoptosis by Annexin V/DAPI staining” value [1] is reported as “significant apoptosis”, the “Cell death induced by metformin upon knockdown of RelB expression” value ([1]; RelB knocked-down MD901) is reported as “even more pronounced cell death” and the “Drug-induced apoptosis upon RelB-expression knockdown” value [1] is reported as “markedly increased”. The “Loss of mitochondrial potential upon RelB-expression knockdown” value [2] was “increase in loss of mitochondrial potential”.

With `O=C(O)/C=C/CBr` [4-BCA, 4-bromocrotonic acid] the “Cell growth in RelB overexpressing Huh7 cells” value [3] was “the RelB-dependent increase in Huh7 cell number was lost and cell growth rate was even lowered compared to the control cells”, the “Cell death (DAPI positive cells), RelB pro-survival effect against palmitate” value [4] was “RelB pro-survival effect was almost completely abolished” and the “Cell death upon inhibition of fatty acid oxidation” value ([5]; MD901, as soon as 24 hours post-treatment (FIG. 9A)) was “massive and rapid cell death”. For the same molecule, the “Cell death upon inhibition of fatty acid oxidation” value ([6]; Oci-Ly19, as soon as 24 hours post-treatment (FIG. 10A)) was “massive and rapid cell death” and the “Sensitivity to 4-BCA treatment” value ([7]; compared with MD901 / Oci-Ly19 (not shown)) was “much less sensitive”.

With `C=C1C(=O)OC(CCCCCCCC)C1C(=O)O` (stereo not shown) [C75] the “Cell death upon inhibition of fatty acid synthesis” value ([5]; MD901, as soon as 24 hours post-treatment (FIG. 11A)) was “massive and rapid cell death”, the “Cell death upon inhibition of fatty acid synthesis” value ([6]; Oci-Ly19, as soon as 24 hours post-treatment (FIG. 12A)) was “massive and rapid cell death” and the “Sensitivity to C75” value ([7]; compared with MD901 / Oci-Ly19) was “much less sensitive”.

B1: Kidrolase®: L-asparaginase; catalyzes the hydrolysis of asparagine and glutamine into aspartate and glutamate (protein, UniProt P00805 23-348, looked up)
L-asparaginase 2: LPNITILATGGTIAGGGDSATKSNYTVGKVGVENLVNAVPQLKDIANVKGEQVVNIGSQDMNDNVWLTLAKKINTDCDKTDGFVITHGTDTMEETAYFLDLTVKCDKPVVMVGAMRPSTSMSADGPFNLYNAVVTAADKASANRGVLVVMNDTVLDGRDVTKTNTTDVATFKSVNYGPLGYIHNGKIDYQRTPARKHTSDTPFDVSKLNELPKVGIVYNYANASDLPAKALVDAGYDGIVSAGVGNGNLYKSVFDTLATAAKTGTAVVRSSRVPTGATTQDAEVDDAKYGFVASGTLNPQKARVLLQLALTQTKDPQQIQQIFNQY
In the case of B1, the “Apoptosis by Annexin V/DAPI staining” value [1] is reported as “significant apoptosis”, the “Drug-induced apoptosis upon RelB-expression knockdown” value [1] is reported as “markedly increased” and the “Loss of mitochondrial potential upon RelB-expression knockdown” value [2] is reported as “increase in loss of mitochondrial potential”.
